Assay results reported in US20050228016A1, “TETRAHYDROQUINOLINES FOR MODULATING THE EXPRESSION OF EXOGENOUS GENES VIA AN ECDYSONE RECEPTOR COMPLEX” (priority 2002, published 2005).

Key:
[1] = molecular target: T1, Bombyx mori EcR (VP16-BmEcR, CVBE) (Bombyx mori, UniProt P49881); assay: Z3 assay (HEK-293 clone Z3 with CVBE and 6x EcRE LacZ, β-galactosidase reporter); assay type: cell-based; details: 48 h, average of two wells
T1 construct: expressed in transfected cells
T1 sequence (P49881 86-606): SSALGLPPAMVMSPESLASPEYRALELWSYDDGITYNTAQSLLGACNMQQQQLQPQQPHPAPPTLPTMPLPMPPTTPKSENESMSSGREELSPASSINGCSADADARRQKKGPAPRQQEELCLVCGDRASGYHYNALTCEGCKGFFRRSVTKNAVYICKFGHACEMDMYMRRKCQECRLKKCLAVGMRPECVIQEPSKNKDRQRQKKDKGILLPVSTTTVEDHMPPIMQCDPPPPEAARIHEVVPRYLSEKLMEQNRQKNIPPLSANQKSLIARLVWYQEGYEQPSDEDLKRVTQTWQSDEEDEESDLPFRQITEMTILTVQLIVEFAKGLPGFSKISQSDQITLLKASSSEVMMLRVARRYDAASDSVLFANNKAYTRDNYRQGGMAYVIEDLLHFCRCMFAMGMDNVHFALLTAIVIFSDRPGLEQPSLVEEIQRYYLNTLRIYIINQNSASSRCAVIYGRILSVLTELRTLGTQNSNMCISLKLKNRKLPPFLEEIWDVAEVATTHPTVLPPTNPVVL
Excerpt: Dr. F. Gage provided a population of stably transformed cells containing CVBE and 6× EcRE as described in (Suhr et. al. 1998). Human 293 kidney cells, also referred to as HEK-293 cells, were sequentially infected with retroviral vectors encoding first the switch construct CVBE, and subsequently the reporter construct 6× EcRE Lac Z. The switch construct contained the coding sequence for amino acids 26-546 from Bombyx nori EcR (BE) (Iatrou) inserted in frame and downstream of the VP16 transactivation domain (VBE). A synthetic ATG start codon was placed under the control of cytomegalovirus (CVBE) immediate early promoter and flanked by long terminal repeats (LTR). The reporter-construct contained six copies of the ecdysone response element (EcRE) binding site placed upstream of LacZ and flanked on both sides with LTR sequences (6× EcRE).
Dilution cloning was used to isolate individual clones. Clones were selected using 450 μg/ml G418 and 100 ng/ml puromycin. Individual clones were evaluated based on their response in the presence and absence of test ligands.
Human 293 kidney cells stably transformed with CVBE and 6× EcRE lack were maintained in Minimum Essential Medium (Mediates, 10-010-CV) containing 10%.FBS (Life Technologies, 26140-087),[…] G418 (Mediates, 30-234-CR), and […] (Sigma, P-7255), at 37° C. in an atmosphere containing 5% CO2 and were subculture when they reached 75% confluence.
Z3 cells were seeded into 96-well tissue culture plates at a concentration of 2.5×10^3 cells per well and incubated at 37° C. in 5% CO2 for twenty-four hours. Stock solutions of ligands were prepared in DMSO. Ligand stock solutions were diluted 100.fold in media and 50 μL of this diluted ligand solution (33 μM) was added to cells.
Reporter gene expression was evaluated 48 hours after treatment of cells, β-galactosidase activity was measured using Gal Screen™ bioluminescent reporter gene assay system from Tropix (GSY1000).
Flanking both constructs are long terminal repeats, G418 and puromycin are selectable markers, CMV is the cytomegalovirus promoter, VBE is coding sequence for amino acids 26-546 from Bombyx mori EcR inserted downstream of the VP16 transactivation domain, 6× EcRE is six copies of the ecdysone response element, lacZ encodes for the reporter enzyme β-galactosidase.

[2] = molecular target: T2, Gal4DBD/AaEcR (DEF) (Aedes aegypti, UniProt P49880); assay: cell-based; assay type: cell-based; details: 33 μM; 3T3 cells; 48 h; average of two wells
T2 construct: The wildtype D, E, and F domains from mosquito Aedes aegypti EcR; expressed in transfected cells; host or cells: 3T3 cells
Protocol: 3T3 cells were trypsinized and plated at 2.5×10^3 cells/well on a 96-well plate. After incubation for 24 h at 37° C. under 5% CO2, cells were transfected with the Gal4DBD/AaEcR (DEF) gene expression cassette and the reporter plasmid, pFRLuc, containing a 5× GAL4 response element and the firefly luciferase gene in serum free media using Superfect (Qiagen). After transfection for 4 h at 37° C., the cells were treated with ligand in serum media. […] Single dose testing was performed at 33 μM.

T2 sequence (P28704 286-520 A311G/G315S/G445S/I449V): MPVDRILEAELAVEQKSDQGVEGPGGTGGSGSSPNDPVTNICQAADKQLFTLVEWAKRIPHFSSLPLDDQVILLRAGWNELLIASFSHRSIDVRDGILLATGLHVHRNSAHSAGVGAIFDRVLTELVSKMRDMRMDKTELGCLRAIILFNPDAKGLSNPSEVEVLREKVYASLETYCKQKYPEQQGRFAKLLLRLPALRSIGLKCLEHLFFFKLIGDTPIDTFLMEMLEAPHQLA
T2 sequence (P49880 405-776): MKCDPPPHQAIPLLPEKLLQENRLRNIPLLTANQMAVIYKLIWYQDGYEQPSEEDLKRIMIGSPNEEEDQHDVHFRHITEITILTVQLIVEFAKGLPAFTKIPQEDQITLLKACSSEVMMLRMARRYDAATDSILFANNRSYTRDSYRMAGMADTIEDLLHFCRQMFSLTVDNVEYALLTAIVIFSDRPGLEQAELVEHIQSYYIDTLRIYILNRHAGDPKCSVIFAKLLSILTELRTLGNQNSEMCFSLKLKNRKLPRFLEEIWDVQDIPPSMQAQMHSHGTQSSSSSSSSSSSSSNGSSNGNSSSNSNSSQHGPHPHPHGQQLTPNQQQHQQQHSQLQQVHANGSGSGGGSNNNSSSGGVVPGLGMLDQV

Cc1ccc(C(=O)N2c3ccccc3C(Nc3ccc(F)cc3)CC2C)cc1 (mixture of isomers) [Compound I-40]
Fold Induction Average, Z3V1 Assay 33 μM [1]: 24 fold
Fold Induction Average, AA_3T3V1 Assay 33 μM [2]: 81 fold

Cc1ccc(C(=O)N2c3ccccc3C(Nc3cccc(Cl)c3)CC2C)cc1 (mixture of isomers) [Compound I-42]
Fold Induction Average, Z3V1 Assay 33 μM [1]: 1 fold
Fold Induction Average, AA_3T3V1 Assay 33 μM [2]: 80 fold

Cc1ccc(C(=O)N2c3ccccc3C(Nc3ccc(Cl)cc3)CC2C)cc1 (mixture of isomers) [Compound I-43]
Fold Induction Average, Z3V1 Assay 33 μM [1]: 3 fold
Fold Induction Average, AA_3T3V1 Assay 33 μM [2]: 114 fold

Cc1ccc(NC2CC(C)N(C(=O)c3ccc(C)cc3)c3ccccc32)cc1 (mixture of isomers) [Compound I-45]
Fold Induction Average, Z3V1 Assay 33 μM [1]: 3 fold
Fold Induction Average, AA_3T3V1 Assay 33 μM [2]: 67 fold

COc1ccc(NC2CC(C)N(C(=O)c3ccc(C)cc3)c3ccccc32)cc1 (mixture of isomers) [Compound I-47]
Fold Induction Average, Z3V1 Assay 33 μM [1]: 2 fold
Fold Induction Average, AA_3T3V1 Assay 33 μM [2]: 81 fold

CCCCCCC(=O)N1c2ccccc2[C@@H](Nc2ccccc2)C[C@@H]1C (relative stereo) [Compound I-1]
Fold Induction Average, Z3V1 Assay 33 μM [1]: 10 fold

C[C@H]1C[C@@H](Nc2ccc(F)cc2)c2cc(F)ccc2N1C(=O)c1ccc(F)c(C(F)(F)F)c1 (relative stereo) [Compound I-4]
Fold Induction Average, Z3V1 Assay 33 μM [1]: 1 fold
Fold Induction Average, AA_3T3V1 Assay 33 μM [2]: 4 fold

Cc1ccc(C(=O)N2c3ccccc3[C@H](Nc3ccccc3)C[C@@H]2C)cc1F (relative stereo) [Compound I-19]
Fold Induction Average, Z3V1 Assay 33 μM [1]: 1 fold
Fold Induction Average, AA_3T3V1 Assay 33 μM [2]: 70 fold

Cc1ccc(N[C@H]2C[C@H](C)N(C(=O)c3ccc(F)c(F)c3)c3ccc(C)cc32)cc1 (relative stereo) [Compound I-21]
Fold Induction Average, Z3V1 Assay 33 μM [1]: 1 fold
Fold Induction Average, AA_3T3V1 Assay 33 μM [2]: 52 fold

Cc1ccc(N[C@H]2C[C@H](C)N(C(=O)c3ccc(C(F)(F)F)c(F)c3)c3ccc(C)cc32)cc1 (relative stereo) [Compound I-23]
Fold Induction Average, Z3V1 Assay 33 μM [1]: 1 fold
Fold Induction Average, AA_3T3V1 Assay 33 μM [2]: 87 fold

C[C@H]1C[C@@H](Nc2ccc(F)cc2)c2cc(F)ccc2N1C(=O)c1ccc(F)c(F)c1 (relative stereo) [Compound I-24]
Fold Induction Average, Z3V1 Assay 33 μM [1]: 7 fold
Fold Induction Average, AA_3T3V1 Assay 33 μM [2]: 132 fold

C[C@H]1C[C@@H](Nc2ccc(F)cc2)c2cc(F)ccc2N1C(=O)c1ccc(C(F)(F)F)c(F)c1 (relative stereo) [Compound I-25]
Fold Induction Average, Z3V1 Assay 33 μM [1]: 1 fold
Fold Induction Average, AA_3T3V1 Assay 33 μM [2]: 147 fold

CCc1ccc(C(=O)N2c3ccc(C)cc3[C@@H](Nc3ccc(C)cc3)C[C@@H]2C)cc1 (relative stereo) [Compound I-64]
Fold Induction Average, Z3V1 Assay 33 μM [1]: 1 fold
Fold Induction Average, AA_3T3V1 Assay 33 μM [2]: 681 fold

C[C@H]1C[C@H](Nc2ccc(F)cc2)c2cc(F)ccc2N1C(=O)c1ccc(Cl)cc1 (relative stereo) [Compound I-65]
Fold Induction Average, Z3V1 Assay 33 μM [1]: 82 fold
Fold Induction Average, AA_3T3V1 Assay 33 μM [2]: 345 fold

CCc1ccc(C(=O)N2c3ccc(F)cc3[C@@H](Nc3ccc(F)cc3)C[C@@H]2C)cc1 (relative stereo) [Compound I-66]
Fold Induction Average, Z3V1 Assay 33 μM [1]: 206 fold
Fold Induction Average, AA_3T3V1 Assay 33 μM [2]: 813 fold

CCCC(=O)N1c2ccccc2C(N(C(=O)c2cccc(OC)c2)c2ccccc2)CC1C (centres unmarked) [Compound I-160]
Fold Induction Average, Z3V1 Assay 33 μM [1]: 1 fold

CC1CC(Nc2ccccc2)c2ccccc2N1C(=O)CN1C(=O)CCC1=O (centres unmarked) [Compound I-167]
Fold Induction Average, AA_3T3V1 Assay 33 μM [2]: 1 fold

CC1CC(Nc2ccccc2)c2ccccc2N1C(=O)Cc1cccc2ccccc12 (centres unmarked) [Compound I-169]
Fold Induction Average, Z3V1 Assay 33 μM [1]: 1 fold

Cc1ccc(NC2CC(C)N(C(=O)c3cccc(F)c3)c3ccc(C)cc32)cc1 (centres unmarked) [Compound I-174]
Fold Induction Average, AA_3T3V1 Assay 33 μM [2]: 1 fold

CC1CC(Nc2ccccc2)c2ccccc2N1C(=O)Nc1ccccc1 (centres unmarked) [Compound I-176]
Fold Induction Average, AA_3T3V1 Assay 33 μM [2]: 268 fold

COc1ccc(C=CC(=O)N2c3ccccc3C(Nc3ccccc3)CC2C)cc1 (centres unmarked) [Compound I-177]
Fold Induction Average, AA_3T3V1 Assay 33 μM [2]: 126 fold
